Experimental findings from the supplement of paper PMC3493320 are described below.

Structures are written as SMILES.

As a reminder, the IC50 is the midpoint of a concentration-inhibition curve. A low value points to inhibition by little substance.

This assay relates to NCI-H295R. As to the kind of experiment: IC50 (antiproliferative, ATP content). Particulars: 48 h. A digest of the protocol: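 Serum-free ITS-supplemented DMEM was used to seed 1500 adrenocortical carcinoma cells per well in 1536-well plates, which were cultured overnight. Eight final concentrations of each library compound, from 0.6 nM to 46 µM, were added by pin transfer, followed by 48 h at 37 °C in 5% CO2 and a CellTiter-Glo ATP read after 20 min at room temperature. Luminescence was set against vehicle and positive-control wells, and the IC50 was obtained by logistic curve fitting. Any compound with no concentration response was entered as above the top dose.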
With `CCCCC[C@@H](O)C1C(=O)OC(C)C(O)/C=C/C=C/C=C/C=C/C=C(\C)C(O)C(O)C(O)C[C@H](O)C[C@H](O)C[C@H](O)C[C@H](O)C[C@@H]1O` (stereo not given in full), the IC50 is > 46 µM. To `O=C1NC(=O)C(c2ccccc2)(c2ccccc2)N1` belongs > 46 µM; to `O=C(NC(O)C(Cl)(Cl)Cl)NC(O)C(Cl)(Cl)Cl` (stereo not given), > 46 µM. To `NC(=O)Oc1ccc(Cc2ccccc2)cc1` belongs > 46 µM. To `O=C(/C=C/c1cccc(F)c1)NC1CC1` belongs > 46 µM; to `O=C([O-])c1cc(=O)c2c(OCC(O)COc3cccc4oc(C(=O)[O-])cc(=O)c34)cccc2o1.[Na+].[Na+]`, > 46 µM; to `FC(F)(F)C(Cl)Br` (stereo not given), > 46 µM. For `O=C1[C@H]3[C@H](C3)[C@@]([C@]4([H])[C@@]([C@@]5([H])[C@]([C@@](CC5)(OC(C)=O)[C@@](C)=O)(C)CC4)([H])C=C2Cl)(C)C2=C1`, the concentration for half-maximal inhibition (IC50) was > 46 µM. To `COc1ccc(CCNC[C@H](O)c2ccc(O)cc2)cc1OC` belongs > 46 µM; to `CC(C)=CCC/C(C)=C/C=C/C(C)=C/C=C/C(C)=C/C=C/C=C(C)/C=C/C=C(C)/C=C/C=C(\C)CCC=C(C)C`, > 46 µM.

In the case of `CC1(C)S[C@@H]2[C@H](NC(=O)C3(N)CCCCC3)C(=O)N2[C@H]1C(=O)O`, the IC50 is > 46 µM.

For the compound `CC(=O)Nc1cccc(O)c1`, the IC50 is > 46 µM. For the compound `C[C@@H]1CCC[C@H](C)N1.Cl`, the IC50 is > 46 µM. To `Cc1nc2ccc(CN(C)c3ccc(C(=O)N[C@@H](CCC(=O)O)C(=O)O)s3)cc2c(=O)[nH]1` belongs > 46 µM; to `C[C@H](CCC(=O)[O-])[C@H]1CC[C@H]2[C@@H]3CC[C@@H]4C[C@H](O)CC[C@]4(C)[C@H]3C[C@H](O)[C@]12C.[Na+]`, > 46 µM.

Take `CN(C/C=C/c1ccccc1)Cc1cccc2ccccc12.Cl`: the IC50 is > 46 µM. To `O=C(NCCN1CCOCC1)c1ccc(Cl)cc1` belongs > 46 µM; to `O=C(CS(=O)C(c1ccccc1)c1ccccc1)NO` (stereo not given), > 46 µM; to `Cc1cnc(C(=O)O)c[n+]1[O-]`, > 46 µM. As for `COc1ccc2c(=O)c(C)c(-c3ccccc3)oc2c1CN(C)C.Cl`, the IC50 is > 46 µM. To `CCNCC.O=S(=O)(O)c1cc(O)ccc1O` belongs > 46 µM; to `C=CC1=C(C(=O)O)N2C(=O)[C@@H](NC(=O)C(=NO)c3csc(N)n3)[C@H]2SC1`, > 46 µM. To `OCC(O)CN1CCN(c2ccccc2)CC1` (stereo not given) belongs > 46 µM; to `CC(O)C(=O)O` (stereo not given), > 46 µM; to `CCCCNc1ccc(C(=O)OCCOCCOCCOCCOCCOCCOCCOCCOCCOC)cc1`, > 46 µM. To `Cc1cccc(C)c1NC(=O)NC1=CCCN1C` belongs > 46 µM.

Take `CCC(=O)O[C@]1(C(=O)CCl)[C@@H](C)C[C@H]2[C@@H]3CCC4=CC(=O)C=C[C@]4(C)[C@@]3(F)[C@@H](O)C[C@@]21C`: the half-inhibitory concentration (IC50) was > 46 µM. On to `O=S(=O)([O-])CCS.[Na+]`, for which the half-maximal inhibitory concentration (IC50) was > 46 µM. On to `O=C([O-])c1cc2cc(Cc3cccnc3)ccc2o1.[Na+]`, for which the IC50 is > 46 µM. For `CN1[C@@H]2CC[C@H]1C[C@@H](OC(c1ccccc1)c1ccccc1)C2`, the IC50 was > 46 µM. To `CC1=C(/C=C/C(C)=C/C=C/C(C)=C/C=C/C=C(C)/C=C/C=C(C)/C=C/C2=C(C)CCCC2(C)C)C(C)(C)CCC1` belongs > 46 µM; to `O=C(/C=C/c1ccc(O)c(O)c1)O[C@@H]1C[C@@](OC(=O)/C=C/c2ccc(O)c(O)c2)(C(=O)O)C[C@@H](O)[C@@H]1O`, > 46 µM; to `Nc1ccc(S(N)(=O)=O)cc1`, > 46 µM.

For the compound `O=C(NCCO[N+](=O)[O-])c1cccnc1`, the IC50 was > 46 µM. To `CC(C)(C)c1ccc(C(O)CCCN2CCC(C(O)(c3ccccc3)c3ccccc3)CC2)cc1` (stereo not given) belongs > 46 µM.
